Literature values in US20250078975A1, “METHODS OF PREDICTING PATIENT TREATMENT RESPONSE AND RESISTANCE VIA SINGLE-CELL TRANSCRIPTOMICS OF THEIR TUMORS” (The USA, as represented by the Secretary, Department of …, priority 2023, published 2025).

Test system: cancer cell lines
Settings: through downregulation of Akt (Bartholomeusz et al. 2011)

Nc1ccn([C@@H]2O[C@H](CO)[C@@H](O)C2(F)F)c(=O)n1 [gemcitabine]
Effect on erlotinib resistance: can overcome erlotinib resistance
